Measurements as given in paper PMC6934184, “Selective DNA-PKcs inhibition extends the therapeutic index of localized radiotherapy and chemotherapy” (The Journal of Clinical Investigation, 2019).

Target: T1, CLK4 (Homo sapiens, UniProt Q9HAZ1)
T1 construct: purchased Thermo Fisher Scientific (Life Technologies) SelectScreen
Assay: SelectScreen LanthaScreen
Type: binding
Conditions: read-out: % displacement
How it was run: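 NU5455 was profiled across the SelectScreen Broad panel of kinase activity and binding assays. Z'LYTE reactions such as CSF1R ran at apparent Km ATP, while the Adapta CAMK1 assay used ATP listed as 10. Values are given as percent.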

T1 sequence (Q9HAZ1 whole entry): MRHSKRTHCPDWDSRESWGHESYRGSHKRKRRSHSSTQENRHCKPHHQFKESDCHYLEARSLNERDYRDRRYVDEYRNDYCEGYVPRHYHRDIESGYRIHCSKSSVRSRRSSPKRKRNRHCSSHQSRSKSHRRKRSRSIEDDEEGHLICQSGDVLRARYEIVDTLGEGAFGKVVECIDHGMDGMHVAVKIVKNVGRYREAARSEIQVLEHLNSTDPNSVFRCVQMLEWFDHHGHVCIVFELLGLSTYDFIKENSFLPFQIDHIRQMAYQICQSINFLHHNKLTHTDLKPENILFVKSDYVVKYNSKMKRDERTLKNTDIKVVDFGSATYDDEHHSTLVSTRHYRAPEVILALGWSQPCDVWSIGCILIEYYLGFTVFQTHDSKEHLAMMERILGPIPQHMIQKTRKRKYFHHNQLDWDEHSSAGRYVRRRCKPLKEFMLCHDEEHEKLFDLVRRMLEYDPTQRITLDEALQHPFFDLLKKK

SMILES: CN(C(=O)CN1CCOCC1)c1ccc2sc3c(-c4cccc5c(=O)cc(N6CC7CCC(C6)O7)oc45)cccc3c2c1 [NU5455]
- inhibition at 1 µM: 1.4%
